Source: US20160090557A1, “SUBSTRATES COMPRISING MALODOR REDUCTION COMPOSITIONS” (The Procter & Gamble Company, priority 2014, published 2016)

Tests used:
[1] = Blocker Index (BI), expert graders, isovaleric acid malodorous swatch; parameters: key: BI odor strength 0 (lowest, clean swatch) to 3 (highest)
Text: (§1) Blocker materials suitable for use in consumer products of the present invention are chosen for their ability to decrease malodor, while not interfering with perception of a fragrance. Material selection is done by assigning two indices to a test sample material from two reference scales in order to rank odor strengths. The two reference scales are the Fragrance Fidelity Index (FFI) scale and the Blocker Index (BI) scale. The FFI ranks the ability of the test sample material to impart a perceivable odor which could cause interference when combined with another fragrance and the BI ranks the ability of the test sample material to reduce malodor perception. The two methods for assigning the indices to a test sample on the FFI and the BI reference scales are given below.
(§2) The first step in the method for assigning a BI to a test sample material on the BI reference scale is to create the BI reference swatches. […] Fabric swatches for this test are white knit polycotton (4 inch×4 inch) swatches from EMC ordered as PC 50/50. The supplier is instructed to strip the swatches first, stripping involves washing twice with a fragrance-free detergent and rinsing three times.
The BI scale contains one clean swatch with no malodor applied. […] These solutions are pipetted to the middle of the swatches. […] After drying for 30 minutes in a vented hood, the swatches are wrapped in aluminum foil to prevent odor contamination to the treated swatch. A clean untreated swatch is also included as the lowest anchor point of reference for malodor strength on the BI scale. The BI reference scale swatches should be used within 0.5 to 12 hours and discarded after 12 hours. The swatches are used as scale anchor points when graders evaluate a test sample(s) and are assigned a Blocker Index (BI) as show in Table 12.
The perfumer/expert grader is asked to rank order swatches according to a scale between 0 and 3.
The reference swatches represent the 0, 1, 2, and 3 BIs on the BI reference scale, Table 12. The expert grader should familiarizes him/herself with the strength of the odor on the BI reference swatches by sniffing each one starting at 0 (the lowest odor strength) and ending at 3 (the highest odor strength). This should be done prior to evaluating the swatch treated with the test material.
To evaluate the BI, the test material is applied to a malodorous swatch to determine how well the test material blocks the malodor. […] After drying the malodorous swatch a known concentration of test material solution, between 1 ppm and 100 ppm is pipetted onto the malodorous swatch. […] It is sometimes necessary to evaluate several levels of the test material between about 1 and about 100 ppm to determine the BI.
At least two perfumers/expert graders are used to assign the BI to the test sample. […] The test sample swatch is assigned a BI at or between numbers on the BI in table.

[2] = Fragrance Fidelity Index (FFI), expert graders, treated fabric swatch against ethyl vanillin reference scale
Text: as §1
as §2, with “assigning an FFI” for “assigning a BI”, “to the” for “to a”, “test samples” for “test sample material”, “the FFI” for “the BI”
Pipette 13 μL of each of the three solutions into the middle of a clean swatch resulting in about a 1 cm diameter of the solution in the middle of the swatch. This will create a sensory scale of three swatches with three different odor levels based on the concentration of the solution pipetted onto the swatch. After drying for 30 minutes in a vented hood, the swatches are wrapped in aluminum foil to prevent odor contamination to the treated swatch. A clean untreated swatch is also included as the lowest anchor point of reference for odor strength on the FFI scale. The FFI reference scale swatches should be used within 0.5 to 12 hours and discarded after 12 hours. The swatches are used as scale anchor points when graders evaluate a test sample(s) and are assigned a Fragrance Fidelity Index (FFI) as show in Table 7.
The perfumer/expert panel is asked to rank order swatches according to a scale between 0 and 3.
The reference swatches represent the 0, 1, 2, and 3 FFIs on the FFI reference scale, Table 9. The expert grader should familiarize them self with the strength of the odor on the FFI reference swatches by sniffing each one starting at 0 (the lowest odor strength) and ending at 3 (the highest odor strength). This should be done prior to evaluating the test sample material treated swatch.
A clean swatch is treated with 13 μL of a known concentration of a test sample material resulting in an about 1 cm of the solution on the clean swatch. Just like the reference swatches, the test sample material swatch is dried in a vented hood for 30 minutes and then wrapped in aluminum foil to prevent contamination. […]

[3] = test material Conc 10 ppm on isovaleric acid malodorous swatch
[4] = test material Conc 50 ppm on isovaleric acid malodorous swatch

Structure (SMILES) | BI [1, 3] | BI [1, 4] | further results
O=C1CCC2CCCCC2O1 (stereo not drawn) [3,4,4a,5,6,7,8,8a-octahydrochromen-2-one] | 2.0 | 2.0 | –
CC1CCC2(C(C)C)CC(C)OC2C1 (stereo not drawn) [4,8-dimethyl-1-(methylethyl)-7-oxybiciclo [4.3.0]nonane] | – | – | FFI ([2]; Conc 50 ppm): 0.3; BI ([1]; Conc 10 ppm): 2.0; BI ([1]; Conc 50 ppm): 2.2
CC(C)(C)C1CCCCC1 [4-tert-butyl cyclohexane] | 2.0 | 2.0 | –
CCC(=O)OC1CC2C3C=CCC3C1C2(C)C (stereo not drawn) [8,8-dimethyl-3a,4,5,6,7,7a-hexahydro-1H-4,7-methanoinden-6-yl propionate] | – | – | FFI ([2]; Conc 10 ppm): 0; FFI ([2]; Conc 50 ppm): 0; BI ([1]; Conc 10 ppm): 1.5; BI ([1]; Conc 50 ppm): 2.2
CCCCCCCCCCCCCCCC(=O)OC [Material 109] | 2.0 | – | –
CCCCCCCCCCCCO [Material 174] | – | 2.3 | –
CC(=O)OCCCCCCC(C)C [Material 204] | 2.0 | 2.7 | –
CC1(C)CCc2ccc(CCC=O)cc21 [Material 261, 3-(3,3-dimethyl-2,3-dihydro-1H-inden-5-yl)propanal] | – | – | FFI ([2]; Conc 50 ppm): 0.5; BI ([1]; Conc 10 ppm): 1.5; BI ([1]; Conc 50 ppm): 2.7
CC1(C)CCc2ccc(CCC=O)cc21 [Material 261] | 1.8 | 1.3 | –
CC(=O)OC1CC2CC1C1CC=CC21 (stereo not drawn) [Material 281] | 2.0 | 2.0 | –
CCCCCCCCCCCC(=O)OCC [Material 391] | – | 2.2 | –
C=CC(C)=CCC=C(C)C [Material 524] | – | 2.8 | –
CCC(O)COC1CCCCC1C(C)(C)C (stereo not drawn) [Material 677] | 2.3 | 2.0 | –
CC(CCO)CCc1ccccc1 (stereo not drawn) [Material 962] | 2.3 | 1.7 | –
CCOC(=O)OC1C(C)CCC(C)C1C (stereo not drawn) [Material 1005] | – | 2.6 | –
COC(=O)OC1CC/C=C\CCC1 (stereo not drawn) [Material 1139] | 2.0 | 2.7 | –
C=C1CCC2OC2(C)CCC2C1CC2(C)C (stereo not drawn) [Material 1148] | – | 2.3 | –
CC1(C)C2CCC3(C2)C1C(=O)CCC3(C)C (stereo not drawn) [Material 1149] | 1.5 | 2.3 | –
CCCCCCCCCCCO [Undecanol] | – | 2.3 | –
CC(C)CC(=O)O [isovaleric acid, reference compound] | – | – | BI reference swatch grade, Ave ([1]; 2 μL 0.08% isovaleric acid, graders 1-5 (Table 10)): 1.0; BI reference swatch grade, single expert grader ([1]; stripped swatch with 2 μL 0.08% isovaleric acid): 1.0; BI reference swatch grade, single expert grader ([1]; stripped swatch with 5 μL 0.08% isovaleric acid): 2.5; BI reference swatch grade, single expert grader ([1]; stripped swatch with 20 μL 0.08% isovaleric acid): 2.5
